Source: patent publication US12421264B2 (INSTITUT NATIONAL DE LA RECHERCHE SCIENTIFIQUE, priority 2018, dated 2025)
In brackets after ≈: the same amount, converted by molar mass.

Key:
[1] = system: N. meninigitidis (LNP24198) expressing luciferase (LuxABCDE); assay: N. meningitidis luminescent strain growth assay (16 h); format: cell-based, Neisseria meningitidis; settings: for MIC: 16 h
Experimental: N. meningitidis Luminescent Strain Growth Assay (16 h)
To perform the library screening (FIG. 1) or to compare the activity of the different boron-containing salts (FIG. 3), the amount of light produced after 16 h of growth for N. meningitidis luminescent strain was measured. Contrarily to optical density (OD) readings which can be misleading due to the absorbance of dead cells, this measurement is directly correlated to the number of live cells, as the half-life of the luciferase and its substrate are limited and that the emission of light is therefore not subsisting after the death of the cells. To perform this assay, N. meninigitidis (LNP24198) expressing luciferase (LuxABCDE) was grown overnight under the control of the constitutive promoter porBp in GCB agar media, and a cell-suspension corresponding to an OD600=0.01 was subsequently prepared. In parallel, fresh stock DMSO solutions of the compounds were prepared (100×, with final concentrations being indicated in the different figures) and 1.8 μL of the corresponding solutions were added per well of 96-well plates. In each well, 178.2 μL of bacterial suspension were subsequently added. Bacteria were allowed to grow during 16 h at 37° C. with 5% CO2. The emitted light was measured using a 96-well plate luminometer (PerkinElmer Wallac 1420 Victor^3) and results are expressed in relative light unit (RLU). All these assays were performed at least in triplicates.
To screen molecules for their antibacterial activity, a luminescent system was used, as previously described for other bacteria. A clinical isolate of N. meninigitidis (LNP24198) expressing luciferase (LuxABCDE) under the control of the constitutive promoter porBp was used, as similarly described, located in the intergenic region next to NMB1732. More than 2400 compounds from different origins were screened to identify candidates with the ability to inhibit the growth of N. meningitidis after 16 h at 37° C. […] It is noteworthy that stock solutions for all tested compounds were prepared in DMSO and that the final DMSO concentration of the tested solutions was kept at 1%, a concentration which has proven not to affect the growth of N. meningitidis (FIG. 1A). […] An investigation of the effect of the BPh4^− moiety was then pursued.
To exclude any salt-specific effect, the effect of several BPh4^− and BF4^− salts on the growth of N. meningitidis luminescent strain was tested. The growth of N. meningitidis was measured after a 16 h-exposure to different concentrations of various BPh4^− and BF4^− salts. From this assay, the MIC (minimum inhibitory concentration, the lowest concentration that prevents visible bacterial growth, <800 RLU) was calculated. All BPh4 salts tested (sodium, ammonium and potassium) were all highly toxic for N. meningitidis.
Several borate compounds were prepared and their ability to inhibit N. meningitidis growth was assessed using the luminescent system described at Example 2.

[2] = Partition coefficient (Log P), shaking flask method (HPLC-UV); format: physicochemical; settings: octanol/water
Description: As well-known to the skilled person, when expressing lipophilicity as log P, P is the partition coefficient; that is the ratio of the concentrations of the compound between a hydrophobic phase and a hydrophilic phase (forming a biphasic liquid mixture), generally water and octanol.
(§1) The measurement of log P is well described in the literature—see e.g. Román, I. P.; Mastromichali, A.; Tyrovola, K.; Canals, A.; Psillakis, E. Rapid Determination of Octanol-Water Partition Coefficient Using Vortex-Assisted Liquid-Liquid Microextraction. J. Chromatogr. A 2014, 1330, 1-5; and Yiantzi, E.; Psillakis, E.; Tyrovola, K.; Kalogerakis, N. Vortex-Assisted Liquid-Liquid Microextraction of Octylphenol, Nonylphenol and Bisphenol-A. Talanta 2010, 80 (5), 2057-2062, both of which are incorporated herein by reference.
as §1, with “Partition coefficients (Log P) were determined using” for “The measurement of log P is well described in”, “shaking flask method (HPLC-UV)—see” for “literature—see e.g.”

[3] = system: N. gonorrhoeae (LNP16626); assay: Bacterial survival assay (3 h), CFU counts; format: cell-based, Neisseria gonorrhoeae; settings: 50 μM, 3 h, CFU counts
Experimental: (§2) Bacterial Survival Assay (3 h)
(§3) To measure bacterial survival (FIGS. 2 and 4), different bacteria were exposed to various concentrations of the compounds (as indicated) in their specific growth media (see the culture conditions above) for 3 h at 37° C. To perform this assay, all strains were grown overnight in their corresponding agar media. Cell-suspension corresponding to an OD600=0.05 were subsequently prepared. In parallel, fresh stock DMSO solutions of the compounds were prepared (100×, with final concentrations being indicated in the different figures) and 1.8 μL of the corresponding solutions were added per well of 96-well plates. In each well, 178.2 μL of bacterial suspension were subsequently added. Bacteria were allowed to grow during […] at 37° C. with 5% CO2. After incubation, serial dilutions (until 10^−6) were performed and 50 μL of each diluted solution were spread on agar plates. After an overnight incubation at 37° C. with/without 5% CO2, CFU were enumerated. All these assays were performed at least in triplicates.
(§4) Therefore, the bactericidal activity was assessed for the 4 compounds harboring a BPh4^− identified from the initial screen described above (AnIII-7, AnIII-6, AnII-18, NaBPh4). N. meningitidis was treated with 50 μM of each compound and the % survival cells (compared with DMSO 1% control) was measured using serial dilutions and CFU counts. […] To verify if the bactericidal effect could be observed for the other pathogen of the Neisseria family, a clinical isolate of. N. gonorrhoeae (LNP16626 [3]) was also treated with 50 μM of the same compounds, respectively, using the same assay.
(§5) The MBC (minimum bactericidal concentration that kill >99.999%), the concentration necessary to completely abrogate bacterial survival after a 3 h exposure to NaBPh4, was next assessed.

N. meningitidis = assay: Bacterial survival assay (3 h), CFU counts; format: cell-based, Neisseria meningitidis; settings: 50 μM, 3 h, CFU counts vs DMSO 1% control
Experimental: as §2, §3, §4, §5

[4] = minimum inhibitory concentration, N. meningitidis growth, luminescent system (<800 RLU)

Oc1ccc2ccccc2c1/C=N/c1ccc([B-](c2ccccc2)(c2ccccc2)c2ccccc2)cc1 [Compound 19, sodium {4-[(E)-[(2-hydroxynaphthalen-1-yl)methylidene]amino]phenyl}triphenylborate]
MIC ([1]; Neisseria meningitidis): 2.35 µM

CC[C@H]1OC(=O)[C@H](C)[C@@H](O[C@H]2C[C@@](C)(OC)[C@@H](O)[C@H](C)O2)[C@H](C)[C@@H](O[C@@H]2O[C@H](C)C[C@H](N(C)C)[C@H]2O)[C@](C)(O)C[C@@H](C)C(=O)[C@H](C)[C@@H](O)[C@]1(C)O [erythromycin, reference compound]
emitted light after 16 h of growth ([1]; erythromycin 3.5 μM, largest value of 10 replicates): < 800 RLU

CCCCCCCC[B-](c1ccccc1)(c1ccccc1)c1ccccc1 [Compound 11, Sodium octyltriphenylborate]
MIC ([1]; Neisseria meningitidis): 1 µM
logP [2]: 4.1 ± 0.3

Sodium bis(4-methylphenyl)diphenylborate [Compound 13]
MIC [1, 4]: 5 µM
Log P [2]: 2.0±0.1

CCC[B-](c1ccccc1)(c1ccccc1)c1ccccc1 [Compound 7, Sodium n-propyltriphenylborate]
MIC ([1]; Neisseria meningitidis): 5 µM
logP [2]: 0.8 ± 0.2

Cc1ccc([B-](c2ccc(C)cc2)(c2ccc(C)cc2)c2ccc(C)cc2)cc1.[Na+] [Compound 15, sodium tetrakis(tolyl)borate]
MIC [1, 4]: Active but MIC not determined because of abnormal background signal

Sodium tetrafluoroborate [Compound 4, reference compound]
MIC [1, 4]: >250 µM

CC[B-](c1ccccc1)(c1ccccc1)c1ccccc1 [Compound 6, Sodium ethyltriphenylborate]
MIC ([1]; Neisseria meningitidis): 25 µM
logP [2]: 0

CCCCCCC[B-](c1ccccc1)(c1ccccc1)c1ccccc1 [Compound 10, Sodium heptyltriphenylborate]
MIC ([1]; Neisseria meningitidis): 1 µM
logP [2]: 3.1 ± 0.05

F[B-](F)(F)c1ccccc1.[K+] [Compound 2, Potassium trifluoro(phenyl)borate, reference compound]
MIC [1, 4]: >250 µM

Cc1ccc([B-](c2ccccc2)(c2ccccc2)c2ccccc2)cc1.[Na+] [Compound 12, Sodium tolyltriphenylborate]
MIC [1, 4]: 25 µM
Log P [2]: 0.41±0.02

c1ccc(P(c2ccccc2)c2nc3ccccc3n2Cc2ccc([B-](c3ccccc3)(c3ccccc3)c3ccccc3)cc2)cc1 [Compound 21]
MIC ([1]; Neisseria meningitidis): 0.78 µM

C[B-](c1ccccc1)(c1ccccc1)c1ccccc1 [Compound 5, Sodium methyltriphenylborate]
MIC ([1]; Neisseria meningitidis): 25 µM
logP [2]: -0.96 ± 0.1

Cc1ccc([B-](c2ccccc2)(c2ccc(C)cc2)c2ccc(C)cc2)cc1.[Na+] [Compound 14, Sodium tris(4-methylphenyl)(phenyl)borate]
MIC [1, 4]: 5 µM
Log P [2]: 2.5±0.2

Potassium difluorodiphenylborate [Compound 3]
MIC [1, 4]: 37.5 µM

CCCCCC[B-](c1ccccc1)(c1ccccc1)c1ccccc1 [Compound 9, Sodium hexyltriphenylborate]
MIC ([1]; Neisseria meningitidis): 1 µM
logP [2]: 2.83 ± 0.02

c1ccc(B(c2ccccc2)c2ccccc2)cc1 [BPh3, triphenylborane, reference compound]
toxicity / effect on growth of N. meningitidis luminescent strain (FIG. 3) ([1]; 16 h-exposure, different concentrations): No observable toxicity

c1ccc([B-]2(c3ccccc3)[NH2+]CCO2)cc1 [Compound 22]
MIC ([1]; Neisseria meningitidis): 75 µM (≈ 16.9 µg/mL)

F[B-](F)(F)F [BF4, reference compound]
survival of N. gonorrhoeae [3]: does not exhibit anti-bacterial activity
survival of N. meningitidis (N. meningitidis): does not exhibit anti-bacterial activity
Log P [2]: about −1.6

Fc1ccc([B-](c2ccc(F)cc2)(c2ccc(F)cc2)c2ccc(F)cc2)cc1 [Compound 16, sodium tetrakis(4-fluorophenyl)borate]
MIC ([1]; Neisseria meningitidis): 2.5 µM
